pIC50: −log10 of the molar value. Read-outs that look alike come from different tables or passages of the source.
Columns and labels:
Assay type in all cases: biochemical
PI3Kδ enzyme = PI3Kδ enzyme (Homo sapiens, UniProt O00329); test: ADP-Glo kinase assay, inhibition of PI3Kδ enzyme
Method: (§1) In this experiment, an ADP-Glo™ kinase assay kit is used. A substrate is phosphorylated under the action of enzyme, and ADP is generated at the same time. An ADP-Glo Reagent is added to remove unreacted ATP in the reaction system, and the ADP generated by the reaction is detected by a kinase detection reagent. In the presence of a compound, the inhibition rate of the compound is calculated by measuring the signal value.
(§2) Test compounds were each subjected to 3-fold dilution from a starting concentration of 10000 nM to obtain 11 concentrations, and duplicate wells were set for the test. Gradient dilution to a corresponding 100-fold final concentration in a 384-well plate was performed to obtain solutions with 11 different concentrations. 50 nL of each solution was transferred to compound wells of a 384-well plate with Echo; negative control wells were added with 50 nL of DMSO. A kinase solution with a 2-fold final concentration was prepared using 1×kinase buffer. 2.5 μL of the kinase solution with a 2-fold final concentration was added to the compound wells; 2.5 μL of the 1× kinase buffer was added to the negative control wells. The mixture was centrifuged at 1000 rpm for 30 s, mixed well by shaking, and then incubated at room temperature for 10 min. A mixed solution of ATP and substrate P1P2 with a 2-fold final concentration was prepared using 1× kinase buffer. The reaction was initiated by adding 2.5 μL of the mixed solution of ATP and substrate with a 2-fold final concentration. The mixture in the 384-well plate was centrifuged at 1000 rpm for 30 s, mixed well by shaking, and then reacted at room temperature for 120 min. 5 μL of ADP-Glo reagent was added, and the mixture was centrifuged at 1000 rpm for 30 s, mixed well by shaking, and then incubated at room temperature for 40 min. 10 μL of kinase detection reagent was added, and the resulting mixture was centrifuged at 1000 rpm for 30 s, mixed well by shaking, and then incubated at room temperature for 30 min. The luminescence RLU was read with an Envision microplate reader.
(§3) IC50 values for the inhibitory activity of the compounds were calculated using Graphpad Prism software.

PI3Kα enzyme = PI3Kα enzyme (Homo sapiens, UniProt P42336); test: ADP-Glo kinase assay, selectivity, PI3Kα enzyme; conditions: 11 concentrations from 10000 nM
Method: as §1, §2, §3

PI3Kβ enzyme = PI3Kβ enzyme (Homo sapiens, UniProt P42338); test: ADP-Glo kinase assay, selectivity, PI3Kβ enzyme; conditions: 11 concentrations from 10000 nM
Method: as §1, §2, §3

PI3Kγ enzyme = PI3Kγ enzyme (Homo sapiens, UniProt P48736); test: ADP-Glo kinase assay, selectivity, PI3Kγ enzyme; conditions: 11 concentrations from 10000 nM
Method: as §1, §2, §3

[1] = ADP-Glo, PIK3CD/PIK3R1, 11 concentrations from 10000 nM, read-out: PI3Kδ enzyme IC50

Sequence of PI3Kδ enzyme (O00329 whole entry): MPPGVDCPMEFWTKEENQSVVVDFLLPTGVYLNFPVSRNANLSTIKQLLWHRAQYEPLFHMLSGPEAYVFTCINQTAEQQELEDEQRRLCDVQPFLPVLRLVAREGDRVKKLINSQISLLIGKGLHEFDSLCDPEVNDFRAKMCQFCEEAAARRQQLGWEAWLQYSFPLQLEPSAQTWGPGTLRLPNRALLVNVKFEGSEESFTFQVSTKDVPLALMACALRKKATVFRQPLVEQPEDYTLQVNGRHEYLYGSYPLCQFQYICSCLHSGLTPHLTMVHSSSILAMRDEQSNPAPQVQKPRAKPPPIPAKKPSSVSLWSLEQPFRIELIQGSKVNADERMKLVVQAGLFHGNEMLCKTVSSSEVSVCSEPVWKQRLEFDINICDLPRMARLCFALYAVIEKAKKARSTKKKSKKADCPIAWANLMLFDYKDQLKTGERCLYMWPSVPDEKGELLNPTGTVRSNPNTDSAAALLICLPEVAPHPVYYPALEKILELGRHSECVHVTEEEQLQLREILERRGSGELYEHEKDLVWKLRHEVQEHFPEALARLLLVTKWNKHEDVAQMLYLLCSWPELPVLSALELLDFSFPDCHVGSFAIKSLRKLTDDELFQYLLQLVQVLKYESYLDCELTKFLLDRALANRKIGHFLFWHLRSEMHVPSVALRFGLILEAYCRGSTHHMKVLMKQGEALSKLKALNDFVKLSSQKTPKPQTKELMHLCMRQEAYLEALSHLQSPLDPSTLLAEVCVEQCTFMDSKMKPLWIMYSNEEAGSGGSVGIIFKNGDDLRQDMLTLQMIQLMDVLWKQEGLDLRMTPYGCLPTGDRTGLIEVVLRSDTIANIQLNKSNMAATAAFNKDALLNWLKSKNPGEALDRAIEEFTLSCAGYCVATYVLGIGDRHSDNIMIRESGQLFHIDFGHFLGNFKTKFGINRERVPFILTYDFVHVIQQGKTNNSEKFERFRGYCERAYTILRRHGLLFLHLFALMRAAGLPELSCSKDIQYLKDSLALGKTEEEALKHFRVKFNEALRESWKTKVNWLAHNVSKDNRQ
Sequence of PI3Kδ enzyme (P27986 whole entry partner): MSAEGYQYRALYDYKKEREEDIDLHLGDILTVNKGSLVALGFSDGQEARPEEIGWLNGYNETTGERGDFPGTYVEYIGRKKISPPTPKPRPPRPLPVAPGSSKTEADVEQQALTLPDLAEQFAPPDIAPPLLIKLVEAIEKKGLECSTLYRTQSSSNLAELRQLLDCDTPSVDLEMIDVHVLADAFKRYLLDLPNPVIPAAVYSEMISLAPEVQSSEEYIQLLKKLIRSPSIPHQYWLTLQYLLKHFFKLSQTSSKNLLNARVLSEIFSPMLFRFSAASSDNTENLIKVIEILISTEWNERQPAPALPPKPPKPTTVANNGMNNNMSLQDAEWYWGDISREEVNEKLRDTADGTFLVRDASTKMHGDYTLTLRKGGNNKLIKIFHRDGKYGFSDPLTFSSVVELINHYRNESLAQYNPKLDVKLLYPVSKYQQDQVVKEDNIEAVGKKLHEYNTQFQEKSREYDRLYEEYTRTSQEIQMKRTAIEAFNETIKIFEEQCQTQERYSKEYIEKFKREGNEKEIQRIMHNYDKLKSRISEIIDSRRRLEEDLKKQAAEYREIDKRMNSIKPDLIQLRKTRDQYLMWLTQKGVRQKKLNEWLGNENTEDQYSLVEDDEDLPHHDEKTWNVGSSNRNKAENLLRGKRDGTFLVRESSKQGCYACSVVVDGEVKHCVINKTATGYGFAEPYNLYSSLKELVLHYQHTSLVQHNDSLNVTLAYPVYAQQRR
Sequence of PI3Kγ enzyme (P48736 whole entry): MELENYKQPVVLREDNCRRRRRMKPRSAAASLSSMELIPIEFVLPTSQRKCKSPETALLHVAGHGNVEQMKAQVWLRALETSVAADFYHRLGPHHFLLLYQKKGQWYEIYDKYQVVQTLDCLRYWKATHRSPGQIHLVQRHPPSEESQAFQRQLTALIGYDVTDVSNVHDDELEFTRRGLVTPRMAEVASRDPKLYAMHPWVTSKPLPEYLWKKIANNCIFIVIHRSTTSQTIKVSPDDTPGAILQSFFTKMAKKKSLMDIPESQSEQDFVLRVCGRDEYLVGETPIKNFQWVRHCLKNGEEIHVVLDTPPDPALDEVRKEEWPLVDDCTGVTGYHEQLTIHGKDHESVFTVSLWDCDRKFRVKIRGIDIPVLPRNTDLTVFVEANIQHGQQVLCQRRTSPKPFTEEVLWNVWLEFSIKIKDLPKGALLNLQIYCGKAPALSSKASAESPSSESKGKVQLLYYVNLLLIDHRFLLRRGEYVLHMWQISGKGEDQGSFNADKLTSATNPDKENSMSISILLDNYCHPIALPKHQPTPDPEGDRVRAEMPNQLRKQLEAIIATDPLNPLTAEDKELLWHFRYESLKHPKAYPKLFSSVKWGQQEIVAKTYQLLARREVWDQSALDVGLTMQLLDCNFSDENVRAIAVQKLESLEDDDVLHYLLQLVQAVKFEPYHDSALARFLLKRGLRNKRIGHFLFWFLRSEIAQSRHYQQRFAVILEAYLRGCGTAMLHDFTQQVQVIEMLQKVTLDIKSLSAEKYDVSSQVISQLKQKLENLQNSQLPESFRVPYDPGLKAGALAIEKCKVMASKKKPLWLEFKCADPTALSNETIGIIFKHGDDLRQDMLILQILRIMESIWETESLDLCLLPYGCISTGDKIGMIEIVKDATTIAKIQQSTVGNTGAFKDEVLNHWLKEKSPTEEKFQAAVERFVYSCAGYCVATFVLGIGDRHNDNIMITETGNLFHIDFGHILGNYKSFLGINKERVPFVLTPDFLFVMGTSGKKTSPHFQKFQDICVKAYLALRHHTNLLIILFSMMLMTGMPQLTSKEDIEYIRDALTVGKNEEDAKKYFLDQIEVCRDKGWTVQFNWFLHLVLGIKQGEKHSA
Sequence of PI3Kβ enzyme (P27986 whole entry): as the sequence (P27986 whole entry partner) above
Sequence of PI3Kβ enzyme (P42338 whole entry): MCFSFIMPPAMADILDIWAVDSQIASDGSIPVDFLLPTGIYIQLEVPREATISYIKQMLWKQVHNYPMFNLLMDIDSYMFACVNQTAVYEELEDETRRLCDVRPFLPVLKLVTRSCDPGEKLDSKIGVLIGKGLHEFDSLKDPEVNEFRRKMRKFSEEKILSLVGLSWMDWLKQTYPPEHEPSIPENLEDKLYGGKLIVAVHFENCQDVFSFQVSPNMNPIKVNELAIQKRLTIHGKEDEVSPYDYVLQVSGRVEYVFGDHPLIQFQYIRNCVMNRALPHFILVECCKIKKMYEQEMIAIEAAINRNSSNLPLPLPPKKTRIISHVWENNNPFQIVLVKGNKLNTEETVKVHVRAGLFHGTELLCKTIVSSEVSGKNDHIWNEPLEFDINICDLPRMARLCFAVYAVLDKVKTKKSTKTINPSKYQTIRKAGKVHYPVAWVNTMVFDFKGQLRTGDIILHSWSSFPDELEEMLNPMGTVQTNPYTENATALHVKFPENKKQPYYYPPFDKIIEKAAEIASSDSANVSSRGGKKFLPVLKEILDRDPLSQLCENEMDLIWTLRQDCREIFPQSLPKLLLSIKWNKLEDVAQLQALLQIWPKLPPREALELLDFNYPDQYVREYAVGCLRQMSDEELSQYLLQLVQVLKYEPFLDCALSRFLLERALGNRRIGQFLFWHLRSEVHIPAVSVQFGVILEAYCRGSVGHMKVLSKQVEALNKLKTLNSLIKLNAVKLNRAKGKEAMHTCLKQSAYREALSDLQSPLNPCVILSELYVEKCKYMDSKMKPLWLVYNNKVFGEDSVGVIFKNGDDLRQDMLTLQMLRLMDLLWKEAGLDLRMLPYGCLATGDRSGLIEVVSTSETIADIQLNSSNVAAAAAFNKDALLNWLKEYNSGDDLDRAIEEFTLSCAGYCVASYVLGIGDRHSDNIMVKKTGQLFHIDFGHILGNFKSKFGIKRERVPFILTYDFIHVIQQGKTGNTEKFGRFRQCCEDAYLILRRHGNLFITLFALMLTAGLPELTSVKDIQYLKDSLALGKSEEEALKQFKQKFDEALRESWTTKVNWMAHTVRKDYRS
Sequence of PI3Kα enzyme (P42336 whole entry): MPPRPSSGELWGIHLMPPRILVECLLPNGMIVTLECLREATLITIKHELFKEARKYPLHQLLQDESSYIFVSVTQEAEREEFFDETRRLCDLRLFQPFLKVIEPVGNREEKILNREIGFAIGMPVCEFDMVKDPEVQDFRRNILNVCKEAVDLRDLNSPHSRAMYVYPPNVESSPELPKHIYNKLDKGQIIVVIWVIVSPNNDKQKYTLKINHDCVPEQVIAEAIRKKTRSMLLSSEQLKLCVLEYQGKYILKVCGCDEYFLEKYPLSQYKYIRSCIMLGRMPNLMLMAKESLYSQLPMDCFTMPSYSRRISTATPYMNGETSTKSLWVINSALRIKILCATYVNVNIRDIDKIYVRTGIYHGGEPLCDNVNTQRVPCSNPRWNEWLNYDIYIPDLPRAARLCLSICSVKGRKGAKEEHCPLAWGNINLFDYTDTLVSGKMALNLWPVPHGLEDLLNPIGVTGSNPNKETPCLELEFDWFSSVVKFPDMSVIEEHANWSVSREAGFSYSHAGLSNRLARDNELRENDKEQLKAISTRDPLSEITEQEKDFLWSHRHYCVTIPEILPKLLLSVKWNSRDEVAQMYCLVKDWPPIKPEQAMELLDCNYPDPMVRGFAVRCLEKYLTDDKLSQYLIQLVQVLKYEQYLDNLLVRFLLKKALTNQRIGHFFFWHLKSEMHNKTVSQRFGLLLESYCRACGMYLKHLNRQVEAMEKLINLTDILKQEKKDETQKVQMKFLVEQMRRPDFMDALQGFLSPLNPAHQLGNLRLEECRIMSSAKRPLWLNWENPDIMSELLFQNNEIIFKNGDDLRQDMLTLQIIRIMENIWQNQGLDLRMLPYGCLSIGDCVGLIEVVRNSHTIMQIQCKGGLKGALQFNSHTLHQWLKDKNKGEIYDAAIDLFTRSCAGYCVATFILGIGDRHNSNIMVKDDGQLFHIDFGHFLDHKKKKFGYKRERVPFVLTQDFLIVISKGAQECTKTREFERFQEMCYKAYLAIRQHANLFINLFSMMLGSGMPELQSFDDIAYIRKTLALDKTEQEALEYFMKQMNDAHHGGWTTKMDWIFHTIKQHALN
Sequence of PI3Kα enzyme (P27986 whole entry, further chain): as the sequence (P27986 whole entry partner) above

Q: How did the pIC50 (PI3Kδ enzyme) turn out when `O=C(c1nn(-c2ccc(CN3CCOCC3)cc2)c2c1CS(=O)(=O)c1c(F)cccc1-2)N1CCOCC12CC2` [Control Example 10, (6-fluoro-1-(4-(morpholinomethyl)phenyl)-5,5-dioxido-1,4-dihydrothiochromeno[4,3-c]pyrazol-3-yl)(7-oxa-4-azaspiro[2.5]octan-4-yl)methanone, reference compound] was run?
A: < 5.00

Q: `O=C(c1nn(-c2ccc(CN3CCOCC3)cc2)c2c1CS(=O)(=O)c1c(F)cccc1-2)N1CCOC2(CC2)C1` [Example 1, (6-fluoro-1-(4-(morpholinomethyl)phenyl)-5,5-dioxido-1,4-dihydrothiochromeno[4,3-c]pyrazol-3-yl)(4-oxa-7-azaspiro[2.5]octan-7-yl)methanone] was tested. Which pIC50 (PI3Kδ enzyme) did it give?
A: 7.89

Q: What about the pIC50 (PI3Kα enzyme) of the same molecule?
A: 6.33

Q: And the pIC50 (PI3Kβ enzyme)?
A: 5.88

Q: And the pIC50 (PI3Kγ enzyme)?
A: 5.21

Q: With `O=C(c1nn(-c2ccc(CN3CCOCC3)cc2)c2c1CS(=O)(=O)c1c(Cl)cccc1-2)N1CCOC2(CC2)C1` [Example 2, (6-chloro-1-(4-(morpholinomethyl)phenyl)-5,5-dioxido-1,4-dihydrothiochromeno[4,3-c]pyrazol-3-yl)(4-oxa-7-azaspiro[2.5]octan-7-yl)methanone] as the molecule, how does the pIC50 (PI3Kδ enzyme; [1]) read?
A: 7.74

Q: With `COc1cccc2c1-c1c(c(C(=O)N3CCOC4(CC4)C3)nn1-c1ccc(CN3CCOCC3)cc1)CS2(=O)=O` [Example 3, (9-methoxy-1-(4-(morpholinomethyl)phenyl)-5,5-dioxido-1,4-dihydrothiochromeno[4,3-c]pyrazol-3-yl)(4-oxa-7-azaspiro[2.5]octan-7-yl)methanone] as the molecule, how does the pIC50 (PI3Kδ enzyme; [1]) read?
A: 8.25

Q: With `COc1ccc2c(c1)S(=O)(=O)Cc1c(C(=O)N3CCOC4(CC4)C3)nn(-c3ccc(CN4CCOCC4)cc3)c1-2` [Example 4, (7-methoxy-1-(4-(morpholinomethyl)phenyl)-5,5-dioxido-1,4-dihydrothiochromeno[4,3-c]pyrazol-3-yl)(4-oxa-7-azaspiro[2.5]octan-7-yl)methanone] as the molecule, how does the pIC50 (PI3Kδ enzyme; [1]) read?
A: 8.10

Q: `COc1cccc2c1S(=O)(=O)Cc1c(C(=O)N3CCOC4(CC4)C3)nn(-c3ccc(CN4CCOCC4)cc3)c1-2` [Example 5, (6-methoxy-1-(4-(morpholinomethyl)phenyl)-5,5-dioxido-1,4-dihydrothiochromeno[4,3-c]pyrazol-3-yl)(4-oxa-7-azaspiro[2.5]octan-7-yl)methanone] was tested. Which pIC50 (PI3Kδ enzyme) did it give?
A: 7.72

Q: And the pIC50 (PI3Kα enzyme)?
A: 5.63

Q: And the pIC50 (PI3Kβ enzyme)?
A: 5.55

Q: And the pIC50 (PI3Kγ enzyme)?
A: < 5.00

Q: `Cc1cccc2c1S(=O)(=O)Cc1c(C(=O)N3CCOC4(CC4)C3)nn(-c3ccc(CN4CCOCC4)cc3)c1-2` [Example 6, (6-methyl-1-(4-(morpholinomethyl)phenyl)-5,5-dioxido-1,4-dihydrothiochromeno[4,3-c]pyrazol-3-yl)(4-oxa-7-azaspiro[2.5]octan-7-yl)methanone] was tested. Which pIC50 (PI3Kδ enzyme) did it give?
A: 7.17

Q: And the pIC50 (PI3Kα enzyme)?
A: 5.59

Q: What about the pIC50 (PI3Kβ enzyme) of the same molecule?
A: 5.15

Q: What about the pIC50 (PI3Kγ enzyme) of the same molecule?
A: < 5.00

Q: Which results are given for `O=C(c1nn(-c2ccc(CN3CCOCC3)cc2)c2c1CS(=O)(=O)c1cc(Cl)ccc1-2)N1CCOC2(CC2)C1` [Example 7, (7-chloro-1-(4-(morpholinomethyl)phenyl)-5,5-dioxido-1,4-dihydrothiochromeno[4,3-c]pyrazol-3-yl)(4-oxa-7-azaspiro[2.5]octan-7-yl)methanone]?
A: pIC50 (PI3Kδ enzyme): 7.58; pIC50 (PI3Kα enzyme): 5.82; pIC50 (PI3Kβ enzyme): 5.76; pIC50 (PI3Kγ enzyme): < 5.00

Q: With `Cc1ccc2c(c1)S(=O)(=O)Cc1c(C(=O)N3CCOC4(CC4)C3)nn(-c3ccc(CN4CCOCC4)cc3)c1-2` [Example 9, (7-methyl-1-(4-(morpholinomethyl)phenyl)-5,5-dioxido-1,4-dihydrothiochromeno[4,3-c]pyrazol-3-yl)(4-oxa-7-azaspiro[2.5]octan-7-yl)methanone] as the molecule, how does the pIC50 (PI3Kδ enzyme) read?
A: 7.60

Q: What about the pIC50 (PI3Kα enzyme) of the same molecule?
A: 5.75

Q: And the pIC50 (PI3Kβ enzyme)?
A: 5.81

Q: What about the pIC50 (PI3Kγ enzyme) of the same molecule?
A: < 5.00

Q: What does the source list for `O=C(c1nn(-c2ccc(CN3CCOCC3)cc2)c2c1CS(=O)(=O)c1c-2ccc(Cl)c1F)N1CCOC2(CC2)C1` [Example 11, (7-chloro-6-fluoro-1-(4-(morpholinomethyl)phenyl)-5,5-dioxido-1,4-dihydrothiochromeno[4,3-c]pyrazol-3-yl)(4-oxa-7-azaspiro[2.5]octan-7-yl)methanone]?
A: pIC50 (PI3Kδ enzyme): 7.98; pIC50 (PI3Kα enzyme): 6.36; pIC50 (PI3Kβ enzyme): 6.13; pIC50 (PI3Kγ enzyme): 5.05

Q: With `Cc1cccc2c1-c1c(c(C(=O)N3CCOC4(CC4)C3)nn1-c1ccc(CN3CCOCC3)cc1)CS2(=O)=O` [Example 12, (9-methyl-1-(4-(morpholinomethyl)phenyl)-5,5-dioxido-1,4-dihydrothiochromeno[4,3-c]pyrazol-3-yl)(4-oxa-7-azaspiro[2.5]octan-7-yl)methanone] as the molecule, how does the pIC50 (PI3Kδ enzyme; [1]) read?
A: 8.24

— US20230234962A1, “OXA-AZASPIRO DERIVATIVE, AND PREPARATION METHOD THEREFOR AND PHARMACEUTICAL USE THEREOF” (priority 2020, published 2023)
